According to patent publication US20220380341A1, “INHIBITORS OF HIV-1 NEF FOR THE TREATMENT OF HIV DISEASE” (priority 2018, published 2022):
“And” between values parts separate entries of the source, which are not always exact repeats. Identical values can stand only once. Like-named read-outs stand apart in the source and are kept apart here.

Key:
[1] = test system: HIV-1NL4-3; assay: HIV-1 infectivity assay in TZM-bl reporter cell line (LTR-luciferase, 48 h); assay type: cell-based; conditions: for inhibition at 1 µM: Human immunodeficiency virus 1, TZM-bl
Procedure: (§1) In particular, the tables show antiretroviral activity as percent inhibition of HIV-1 infectivity at 1 μM. In brief, this assay uses the TZM-bl reporter cell line, which carries a stable copy of the HIV-1 LTR coupled to luciferase. Cells are infected with HIV-1NL4-3 in the presence and absence of each compound, and luciferase activity is measured 48 h later. This assay measures early events in the HIV-1 life cycle, including viral entry, reverse transcription, nuclear entry and integration, and viral transcription. All assays include control cells infected with Nef-defective HIV-1, which replicates at 30-50% of wild-type in this system. Results are normalized to percent inhibition relative to DMSO-treated control cells infected with wild-type HIV-1 (0% inhibition) and DMSO-treated cells infected with Nef-defective HIV-1 (100% of the Nef-dependent effect)—see column 3. In addition, cell viability is measured in the TZM-bl cell line in the presence of each test compound and in the absence of HIV-1 infection, using the Cell Titer Blue cell viability assay (Promega; column 4).

[2] = test system: TZM-bl cell line; assay type: cell-based
Procedure: as §1

[3] = target: HIV-1 NefNL4-3 (Human immunodeficiency virus type 1 group M subtype B, UniProt P03406, A33V/T15A/T51N/V11I); assay: Surface plasmon resonance binding to recombinant full-length Nef (NL4-3); conditions: for T, minutes (residence time): 2-step induced fit, T = 1/koff2; for RU30/RUNef (extent of binding): response units at 30 μM relative to Nef immobilized on the SPR chip
[4] = Table 1, TZM-bl cells, 1 μM, 48 h, 100% = Nef-defective HIV-1
[5] = Table 1, uninfected TZM-bl cells, 1 μM, Cell Titer Blue
[6] = Table 1, 1:1 Langmuir fit where the KD2 cell says '1 to 1 fitting', else 2-site fit, read-out: Nef NL4-3 Binding, SPR 1:1 or 2-site fitting KD1
[7] = Table 1, 1:1 Langmuir fit where the KD2 cell says '1 to 1 fitting', else 2-site fit
[8] = 1.0 μM, TZM-bl reporter cell line, Table 4, read-out: % Infectivity Inhibition
[9] = 48 h, Table 1, TZM-bl cells, 1 μM, 48 h, 100% = Nef-defective HIV-1, read-out: HIV-1 Infectivity % Inhibition Norm. to Δ-Nef @ 1 μM
[10] = KD, M, Table 4, SPR fit 2-step induced fit, KD = koff/kon × koff2/(koff2 + kon2)
[11] = Nef NL4-3 Binding, SPR 1:1 or 2-site fitting KD2, Table 1, 2-site fit, second component
[12] = Nef NL4-3 Binding, SPR 2-state fitting KD, Table 1, 2-step induced-fit model
[13] = read-out: Nef NL4-3 Binding, SPR 1:1 or 2-site fitting KD2, Table 1, 2-site fit, second component

Row | Compound | HIV-1 Infectivity % Inhibition Norm. to Δ-Nef @ 1 μM [1, 4] [%] | Percent Viability @ 1 μM (TZM-bl cells) [2, 5] [%] | Kd [3, 6] [nM] | Nef NL4-3 Binding, SPR 1:1 or 2-site fitting KD1 [3, 7] | inhibition at 1 µM [1, 8] [%] | inhibition at 1 µM [1, 9] [%] | % Cell Viability ([2]; human, 1 μM) [%] | Percent Viability @ 1 μM (TZM-bl cells) ([2]; human, 1 μM) [%] | Kd [3] | Kd [3, 10] [nM] | Kd [3, 11] [nM] | Kd [3, 12] [nM] | T, minutes (residence time) ([3]; Table 4) | RU30/RUNef (extent of binding) [3] | Kd [3, 13] [nM] | Percent Viability @ 1 μM (TZM-bl cells) [2] [%] | Kd ([3]; Table 4, SPR fit 2-step induced fit, KD = koff/kon × koff2/(koff2 + kon2)) [nM] | Kd ([3]; read-out: Nef NL4-3 Binding, SPR 1:1 or 2-site fitting KD1, Table 1, 1:1 Langmuir fit where the KD2 cell says '1 to 1 fitting', else 2-site fit) [nM] | Kd ([3]; read-out: Nef NL4-3 Binding, SPR 2-state fitting KD, Table 1, 2-step induced-fit model) [nM]
1 | 1-(1H-1,3-benzodiazol-2-yl)-4-[2-(4-fluorophenyl)ethyl]-3-(1-{[2-(1H-pyrrol-1-yl)phenyl]methyl}piperidin-4-yl)-1H-pyrazol-5-ol [Compound I-805] | 33.9 | 93.7 | 596 | – | – | – | – | – | – | – | – | – | – | – | – | – | – | – | –
2 | 2-{4-[1-(1H-1,3-benzodiazol-2-yl)-4-[2-(4-fluorophenyl)ethyl]-5-hydroxy-1H-pyrazol-3-yl]piperidine-1-carbonyl}benzene-1,3,5-triol [Compound I-729] | 57.2 | 102.4 | – | No Interaction | – | – | – | – | – | – | – | – | – | – | – | – | – | – | –
3 | CC(C)(C)OC(=O)N1CCC[C@H]1c1nn(-c2nc3ccccc3[nH]2)c(O)c1CCc1ccc(F)cc1 (stereo in doubt) [Compound I-205, tert-butyl 2-[1-(1H-1,3-benzodiazol-2-yl)-4-[2-(4-fluorophenyl)ethyl]-5-hydroxy-1H-pyrazol-3-yl]pyrrolidine-1-carboxylate] | – | – | – | – | 14.3 | 14.3 | 95.6 | 95.6 | 1090 nM | 208 | 1100 | 208 | 9.98E + 01 minutes | 5.81E- 03 | – | – | – | – | –
4 | Oc1c(CCc2ccc(F)cc2)c(-c2ccc(C(F)(F)F)cc2)nn1-c1nc2ccccc2[nH]1 [Compound I-106, 1-(1H-1,3-benzodiazol-2-yl)-4-[2-(4-fluorophenyl)ethyl]-3-[4-(trifluoromethyl)phenyl]-1H-pyrazol-5-ol] | – | – | – | – | – | 98.2 | – | 84.5 | 20200 nM | – | 3260 | – | – | – | – | – | – | – | –
5 | Oc1c(CCc2ccc(F)cc2)c(C2CCOCC2)nn1-c1nc2ccccc2[nH]1 [Compound I-114, 1-(1H-1,3-benzodiazol-2-yl)-4-[2-(4-fluorophenyl)ethyl]-3-(oxan-4-yl)-1H-pyrazol-5-ol] | – | – | – | – | – | 78.2 | – | 99.5 | 1770 nM and 1170 nM | – | 4400 | 5560 | – | – | – | – | – | – | –
6 | Oc1c(CCc2ccc(F)cc2)c(-c2cncc(Br)c2)nn1-c1nc2ccccc2[nH]1 [Compound I-118, 1-(1H-1,3-benzodiazol-2-yl)-3-(5-bromopyridin-3-yl)-4-[2-(4-fluorophenyl)ethyl]-1H-pyrazol-5-ol] | – | – | – | – | – | 101 | – | 81.6 | 95.6 nM | – | – | 0.216 | – | – | 17100 | – | – | – | –
7 | Oc1c(CCc2ccc(F)cc2)c(-c2cccnc2)nn1-c1nc2ccccc2[nH]1 [Compound I-121, 1-(1H-1,3-benzodiazol-2-yl)-4-[2-(4-fluorophenyl)ethyl]-3-(pyridin-3-yl)-1H-pyrazol-5-ol] | – | – | – | – | 29.6 | 29.6 | 97.8 | 97.8 | 0.0383 nM | 474 | – | 474 | 2.58E + 01 minutes | 7.40E- 03 | 2610 | – | – | – | –
8 | Oc1c(CC2CCCCO2)c(-c2ccc(C(F)(F)F)cc2)nn1-c1nc2ccccc2[nH]1 (centres unmarked) [Compound I-122, 1-(1H-1,3-benzodiazol-2-yl)-4-[(oxan-2-yl)methyl]-3-[4-(trifluoromethyl)phenyl]-1H-pyrazol-5-ol] | – | – | – | – | 95.4 | 95.4 | 75.2 | 75.2 | 1240 nM | 2250 | – | 1860 | 1.02E + 01 minutes | 1.07E- 02 | 11600 | – | – | – | –
9 | COCCc1nn(-c2nc3ccccc3[nH]2)c(O)c1CCc1ccc(F)cc1 [Compound I-125, 1-(1H-1,3-benzodiazol-2-yl)-4-[2-(4-fluorophenyl)ethyl]-3-(2-methoxyethyl)-1H-pyrazol-5-ol] | – | – | – | – | 21.2 | 21.2 | 100 | 101.1 | 3070 nM | 3130 | – | 3130 | 8.87E + 00 minutes | 2.86E- 03 | – | – | – | – | –
10 | Oc1c(CCc2ccc(F)cc2)c(-c2cnc(C(F)(F)F)nc2)nn1-c1nc2ccccc2[nH]1 [Compound I-126, 1-(1H-1,3-benzodiazol-2-yl)-4-[2-(4-fluorophenyl)ethyl]-3-[2-(trifluoromethyl)pyrimidin-5-yl]-1H-pyrazol-5-ol] | – | – | – | No Interaction | – | -13.9 | – | 107.8 | – | – | – | – | – | – | – | – | – | – | –
11 | Cn1cccc(-c2nn(-c3nc4ccccc4[nH]3)c(O)c2CCc2ccc(F)cc2)c1=O [Compound I-127, 3-[1-(1H-1,3-benzodiazol-2-y1)-4-[2-(4-fluorophenyl)ethyl]-5-hydroxy-1H-pyrazol-3-yl]-1-methyl-1,2-dihydropyridin-2-one] | 2.4 | – | 2100 | – | – | – | – | – | – | – | – | – | – | – | – | 100.0 | – | – | –
12 | Cc1ccn(CCc2c(-c3ccc(C(F)(F)F)cc3)nn(-c3nc4ccccc4[nH]3)c2O)n1 [Compound I-128, 1-(1H-1,3-benzodiazol-2-yl)-4-[2-(3-methyl-1H-pyrazol-1-yl)ethyl]-3-[4-(trifluoromethyl)phenyl]-1H-pyrazol-5-ol] | – | – | – | – | 33.5 | 33.5 | 97.9 | 97.9 | – | – | – | – | 1.20E + 03 minutes | 5.56E- 03 | 4330 | – | 7.64 | 0.146 | 7.64
13 | CC(C)(C)c1nn(-c2nc3ccccc3[nH]2)c(O)c1CCc1ccc(F)cc1 [Compound I-130, 1-(1H-1,3-benzodiazol-2-yl)-3-tert-butyl-4-[2-(4-fluorophenyl)ethyl]-1H-pyrazol-5-ol] | – | – | – | – | 43.6 | 43.6 | 98.7 | 98.7 | 702 nM | 3800 | – | 3800 | 1.15E + 01 minutes | 9.49E- 03 | 13000 | – | – | – | –
14 | Oc1c(CCN2CCOCC2)c(-c2ccc(C(F)(F)F)cc2)nn1-c1nc2ccccc2[nH]1 [Compound I-131, 1-(1H-1,3-benzodiazol-2-yl)-4-[2-(morpholin-4-yl)ethyl]-3-[4-(trifluoromethyl)phenyl]-1H-pyrazol-5-ol] | – | – | – | – | 14.2 | 14.2 | 96.4 | 96.4 | 1360 nM | 4930 | – | 4930 | 5.16E + 00 minutes | 1.06E- 02 | 17800 | – | – | – | –
15 | O=C1CCCN1CCc1c(-c2ccc(C(F)(F)F)cc2)nn(-c2nc3ccccc3[nH]2)c1O [Compound I-132, 1-{2-[1-(1H-1,3-benzodiazol-2-yl)-5-hydroxy-3-[4-(trifluoromethyl)phenyl]-1H-pyrazol-4-yl]ethyl}pyrrolidin-2-one] | – | – | – | – | 15.7 | 15.7 | 96.5 | 96.5 | 61.8 nM | 1700 | – | 1700 | 5.46E + 00 minutes | 5.62E- 03 | 8010 | – | – | – | –
16 | O=S(=O)(c1c(Cl)nc2sccn12)N1CCC(c2nn(-c3nc4ccccc4[nH]3)c(O)c2CCc2ccc(F)cc2)CC1 [Compound I-752, 1-(1H-1,3-benzodiazol-2-yl)-3-[1-({6-chloroimidazo[2,1-b][1,3]thiazol-5-yl}sulfonyl)piperidin-4-yl]-4-[2-(4-fluorophenyl)ethyl]-1H-pyrazol-5-ol] | – | – | – | – | – | 14.7 | – | 97.7 | – | – | – | – | – | – | – | – | – | – | –
